In the assay the test system is monocistronic NK5.1 HCV replicon in Huh7 cells. Description: HCV replicon assay, monocistronic replicon cell line. As to conditions: Hepatitis C virus, read-out: Mono EC50 Median. Format: cell-based, hepatitis C virus. An outline of the steps: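 Huh7 cells carrying the monocistronic NK5.1 replicon, seeded 24 h before dosing, were exposed to six-point half-log compound series (0.6% DMSO) for 3 days at 37 °C. Replicon RNA was quantified by TaqMan RT-PCR, normalised to GAPDH and compared with DMSO controls to derive EC50.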

The mark [1] stands for this setting: Huh-7, 72 h, Table 1, monocistronic replicon in Huh7 cells, 3 days incubation, HCV RNA/GAPDH RNA by TaqMan RT-PCR.
Where [2] appears, read: Huh-7, monocistronic NK5.1 HCV replicon in Huh7 cells, median value.

pEC50: −log10 of the molar value. Like-named read-outs stand apart in the source and are kept apart here.

Consider `Cc1ccc(O)c(-c2nc(-c3ncccc3C)no2)c1` [Compound 192, 4-Methyl-2-[3-(3-methyl-pyridin-2-yl)-[1,2,4]oxadiazol-5-yl]-phenol], for which the pEC50 under setting [1] was under 4.49.

As to `COc1ccc(OC)c(-c2nc(-c3nccc4ccccc34)no2)c1` [Compound 193, 1-[5-(2,5-Dimethoxy-phenyl)-[1,2,4]oxadiazol-3-yl]-isoquinoline], under setting [1], the pEC50 is 5.89.

As to `Cc1ccc(O)c(-c2nc(-c3nccc4ccccc34)no2)c1` [Compound 194, 2-(3-Isoquinolin-1-yl-[1,2,4]oxadiazol-5-yl)-4-methyl-phenol], the pEC50 under setting [1] was under 5.00.

Take `O=[N+]([O-])c1ccc(O)c(-c2nc(-c3nccc4ccccc34)no2)c1` [Compound 195, 2-(3-Isoquinolin-1-yl-[1,2,4]oxadiazol-5-yl)-4-nitro-phenol]: the pEC50 under setting [1] was under 4.49.

For the compound `Oc1ccc(O)c(-c2nc(-c3nccc4ccccc34)no2)c1` [Compound 196, 2-(3-Isoquinolin-1-yl-[1,2,4]oxadiazol-5-yl)-benzene-1,4-diol], the pEC50 under setting [1] was under 4.49.

As to `COc1cccc(-c2nc(-c3nccc4ccccc34)no2)c1` [Compound 197, 1-[5-(3-Methoxy-phenyl)-[1,2,4]oxadiazol-3-yl]-isoquinoline], under setting [1], the negative logarithm of the EC50 (pEC50) was under 4.49.

On to `Oc1ccc(Cl)cc1-c1nc(-c2nccc3ccccc23)no1` [Compound 198, 4-Chloro-2-(3-isoquinolin-1-yl-[1,2,4]oxadiazol-5-yl)-phenol], for which the pEC50 under setting [1] is under 4.49.

With `Oc1ccc(F)cc1-c1nc(-c2nccc3ccccc23)no1` [Compound 199, 4-Fluoro-2-(3-isoquinolin-1-yl-[1,2,4]oxadiazol-5-yl)-phenol], under setting [1], the pEC50 was 5.96.

As to `c1ccc2c(-c3nc(-c4nccc5ccccc45)no3)cccc2c1` [Compound 200, 1-(5-Naphthalen-1-yl-[1,2,4]oxadiazol-3-yl)-isoquinoline], under setting [1], the pEC50 was under 4.49.

As to `CN(C)c1ccc(-c2nc(-c3nccc4ccccc34)no2)c(O)c1` [Compound 201, 5-Dimethylamino-2-(3-isoquinolin-1-yl-[1,2,4]oxadiazol-5-yl)-phenol], under setting [1], the pEC50 is under 4.49.

Regarding `COc1ccc(O)c(-c2nc(-c3nccc4ccccc34)no2)c1` [Compound 202, 2-(3-Isoquinolin-1-yl-[1,2,4]oxadiazol-5-yl)-4-methoxy-phenol], the pEC50 under setting [1] is 5.72.

As to `COc1ccc2ccccc2c1-c1nc(-c2nccc3ccccc23)no1` [Compound 203, 1-[5-(2-Methoxy-naphthalen-1-yl)-[1,2,4]oxadiazol-3-yl]-isoquinoline], the pEC50 under setting [1] was 4.64.

Regarding `Oc1ccc(Br)cc1-c1nc(-c2nccc3ccccc23)no1` [Compound 204], the pEC50 under setting [1] is 5.80.

For `COc1ccc(-c2nc(-c3nccc4ccccc34)no2)c(O)c1` [Compound 205, 2-(3-Isoquinolin-1-yl-[1,2,4]oxadiazol-5-yl)-5-methoxy-phenol], under setting [1], the pEC50 is 6.00.

Turning to `Oc1ccccc1-c1nc(-c2nccc3ccccc23)no1` [Compound 206], the pEC50 under setting [1] is 5.85.

Regarding `COc1cccc(-c2nc(-c3ncccc3C(F)(F)F)no2)c1O` [Compound 207, 2-Methoxy-6-[3-(3-trifluoromethyl-pyridin-2-yl)-[1,2,4]oxadiazol-5-yl]-phenol], under setting [1], the pEC50 is 4.77.

As to `COc1ccc(O)c(-c2nc(-c3ncccc3C(F)(F)F)no2)c1` [Compound 208, 4-Methoxy-2-[3-(3-trifluoromethyl-pyridin-2-yl)-[1,2,4]oxadiazol-5-yl]-phenol], the pEC50 under setting [1] is 5.46.

On to `COc1cccc(-c2nc(-c3nccc4ccccc34)no2)c1O` [Compound 209, 2-(3-Isoquinolin-1-yl-[1,2,4]oxadiazol-5-yl)-6-methoxy-phenol], for which, under setting [1], the pEC50 was 5.13.

With `Oc1ccc2ccccc2c1-c1nc(-c2nccc3ccccc23)no1` [Compound 210, 1-(3-Isoquinolin-1-yl-[1,2,4]oxadiazol-5-yl)-naphthalen-2-ol], under setting [1], the pEC50 is 5.62.

`COc1ccc(-c2nc(-c3ncccc3C(F)(F)F)no2)c(O)c1` [Compound 211, 5-Methoxy-2-[3-(3-trifluoromethyl-pyridin-2-yl)-[1,2,4]oxadiazol-5-yl]-phenol]: the pEC50 was 4.96 under setting [1] and 4.96 under setting [2].

Regarding `O=[N+]([O-])c1ccc(-c2nc(-c3nccc4ccccc34)no2)c(Cl)c1` [Compound 212], the pEC50 under setting [1] was under 4.49 and the pEC50 under setting [2] is under 4.49.

Take `Oc1ccc(Br)cc1-c1nc(-c2ccc(C(F)(F)F)cn2)no1` [Compound 213]: the pEC50 under setting [1] is 4.60 and the pEC50 under setting [2] is 4.60.

For `COc1ccc(OC)c(-c2nc(-c3ccc(C(F)(F)F)cn3)no2)c1` [Compound 214, 2-[5-(2,5-Dimethoxy-phenyl)-[1,2,4]oxadiazol-3-yl]-5-trifluoromethyl-pyridine], the pEC50 under setting [1] was 4.74 and the pEC50 under setting [2] was 4.74.

In the case of `O=[N+]([O-])c1cccc(-c2nc(-c3ccc(C(F)(F)F)cn3)no2)c1` [Compound 215, 2-[5-(3-Nitro-phenyl)-[11,2,4]oxadiazol-3-yl]-5-trifluoromethyl-pyridine], the pEC50 runs as follows: under setting [1], 4.51; under setting [2], 4.51.

Consider `Oc1ccc(O)c(-c2nc(-c3ccc(C(F)(F)F)cn3)no2)c1` [Compound 217, 2-[3-(5-Trifluoromethyl-pyridin-2-yl)-[1,2,4]oxadiazol-5-yl]-benzene-1,4-diol], for which the pEC50 is 5.68 under setting [1] and 5.68 under setting [2].

In the case of `Oc1ccc(Cl)cc1-c1nc(-c2ccc(C(F)(F)F)cn2)no1` [Compound 218, 4-Chloro-2-[3-(5-trifluoromethyl-pyridin-2-yl)-[1,2,4]oxadiazol-5-yl]-phenol], the pEC50 under setting [1] was 4.74 and the pEC50 under setting [2] was 4.74.

Turning to `Oc1ccc(F)cc1-c1nc(-c2ccc(C(F)(F)F)cn2)no1` [Compound 219, 4-Fluoro-2-[3-(5-trifluoromethyl-pyridin-2-yl)-[1,2,4]oxadiazol-5-yl]-phenol], the pEC50 reads like this: under setting [1], under 4.49; under setting [2], under 4.49.

Regarding `COc1cccc(-c2nc(-c3ccc(C(F)(F)F)cn3)no2)c1` [Compound 220, 2-[5-(3-Methoxy-phenyl)-[1,2,4]oxadiazol-3-yl]-5-trifluoromethyl-pyridine], the pEC50 reads like this: under setting [1], under 4.49; under setting [2], under 4.49.

Turning to `Oc1ccc2ccccc2c1-c1nc(-c2ccc(C(F)(F)F)cn2)no1` [Compound 221, 1-[3-(5-Trifluoromethyl-pyridin-2-yl)-[1,2,4]oxadiazol-5-yl]-naphthalen-2-ol], the pEC50 under setting [1] was 5.32 and the pEC50 under setting [2] is 5.32.

Turning to `COc1ccc(-c2nc(-c3ccc(C(F)(F)F)cn3)no2)c(O)c1` [Compound 222, 5-Methoxy-2-[3-(5-trifluoromethyl-pyridin-2-yl)-[1,2,4]oxadiazol-5-yl]-phenol], the pEC50 is, setting by setting: under setting [1], under 4.49; under setting [2], under 4.49.

In the case of `Oc1ccccc1-c1nc(-c2ccc(C(F)(F)F)cn2)no1` [Compound 223], the pEC50 is 4.72 under setting [1] and 4.72 under setting [2].

As to `COc1ccc(O)c(-c2nc(-c3ccc(C(F)(F)F)cn3)no2)c1` [Compound 224, 4-Methoxy-2-[3-(5-trifluoromethyl-pyridin-2-yl)-[1,2,4]oxadiazol-5-yl]-phenol], the pEC50 under setting [1] was 5.49 and the pEC50 under setting [2] was 5.49.

The values above are taken from US20050075375A1 (priority 2003, published 2005).
